Measured values reported in ChEMBL document CHEMBL1201862, “PubChem BioAssay data set” (2004).
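1) Cells in 96-well plates. 2) Compound, 48 h, 5 concentrations. 3) Linear interpolation between surrounding doses. 4) Unreached endpoint = highest concentration. At the GI50, growth is halved.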 Calls of active or inactive are those of the source. Rule as the data show it: active = GI50 up to about 1.1 µM and inactive = higher.

Experiments:
Assay in all cases: NCI anticancer screen, dose series, 48 h
SK-OV-3 = tested on: SK-OV-3
MDA-MB-435 = tested on: MDA-MB-435
UO-31 = tested on: UO-31
UACC-62 = tested on: UACC-62
NCI-H23 = tested on: NCI-H23
SW-620 = tested on: SW-620
U-251 = tested on: U-251
K562 = tested on: K562
786-0 = tested on: 786-0
OVCAR-8 = tested on: OVCAR-8
OVCAR-5 = tested on: OVCAR-5
EKVX = tested on: EKVX
DU-145 = tested on: DU-145
MDA-MB-231 = tested on: MDA-MB-231
HCC 2998 = tested on: HCC 2998
NCI/ADR-RES = tested on: NCI/ADR-RES
SK-MEL-28 = tested on: SK-MEL-28
MOLT-4 = tested on: MOLT-4
T47D = tested on: T47D
HL-60 = tested on: HL-60

SMILES | GI50 (SK-OV-3) | GI50 (MDA-MB-435) | GI50 (UO-31) | GI50 (UACC-62) | GI50 (NCI-H23) | GI50 (SW-620) | GI50 (U-251) | GI50 (K562) | GI50 (786-0) | GI50 (OVCAR-8) | GI50 (OVCAR-5) | GI50 (EKVX) | GI50 (DU-145) | GI50 (MDA-MB-231) | GI50 (HCC 2998) | GI50 (NCI/ADR-RES) | GI50 (SK-MEL-28) | GI50 (MOLT-4) | GI50 (T47D) | GI50 (HL-60)
O=C(/C=C/c1ccc(-c2ccccc2)cc1)NCc1ccc(C(=O)NCCc2c[nH]c3ccccc23)cc1 | 14.5 µM (inactive) | > 100 µM (inactive) | 26.7 µM (inactive) | 29 µM (inactive) | 22.1 µM (inactive) | 34 µM (inactive) | 11.9 µM (inactive) | 21.5 µM (inactive) | 11.1 µM (inactive) | 13.6 µM (inactive) | 11.5 µM (inactive) | 34.2 µM (inactive) | > 100 µM (inactive) | 14.6 µM (inactive) | 83.4 µM (inactive) | 60 µM (inactive) | 39.7 µM (inactive) | 16.6 µM (inactive) | 22 µM (inactive) | 
NC1c2c(Br)sc(N3CCCC3)c2C(=O)C1O (stereo not drawn) | > 50 µM (inactive) | > 50 µM (inactive) | > 50 µM (inactive) | > 50 µM (inactive) | > 50 µM (inactive) | > 50 µM (inactive) | > 50 µM (inactive) | > 50 µM (inactive) | > 50 µM (inactive) | > 50 µM (inactive) | > 50 µM (inactive) | > 50 µM (inactive) | > 50 µM (inactive) | 29.1 µM (inactive) | 36.6 µM (inactive) | > 50 µM (inactive) |  | > 50 µM (inactive) | > 50 µM (inactive) | > 50 µM (inactive)
CO/C(=C/C(=O)C(Cl)(Cl)Cl)CC/C(=C\C(=O)C(Cl)(Cl)Cl)OC | 30.4 µM (inactive) | 19.8 µM (inactive) | 20.5 µM (inactive) | 22 µM (inactive) | 22.4 µM (inactive) | 53 µM (inactive) | 22.8 µM (inactive) | 25.8 µM (inactive) | 22.3 µM (inactive) | 21.9 µM (inactive) | 27.8 µM (inactive) | 20.4 µM (inactive) | 25.1 µM (inactive) | 42.2 µM (inactive) |  | 29.5 µM (inactive) | 30.1 µM (inactive) | 21.4 µM (inactive) | 25.4 µM (inactive) | 26.4 µM (inactive)
CC(=O)NNc1nc(C)c(C(/C=C/c2ccc([N+](=O)[O-])cc2)=N/NC(N)=O)s1 | > 100 µM (inactive) | > 100 µM (inactive) | > 100 µM (inactive) | > 100 µM (inactive) | > 100 µM (inactive) | > 100 µM (inactive) | > 100 µM (inactive) | > 100 µM (inactive) | > 100 µM (inactive) | > 100 µM (inactive) | > 100 µM (inactive) | 44.8 µM (inactive) | > 100 µM (inactive) | > 100 µM (inactive) | > 100 µM (inactive) | > 100 µM (inactive) | > 100 µM (inactive) | > 100 µM (inactive) | > 100 µM (inactive) | 
Nc1cc(CO)cc(Nc2nc3ccc(Cl)cc3c3[nH]c4ccccc4c23)c1 | 3.24 µM (inactive) | 3.85 µM (inactive) | 2.9 µM (inactive) | 1.85 µM (inactive) | 6.28 µM (inactive) | 4.44 µM (inactive) | 3.05 µM (inactive) | 4.67 µM (inactive) | 1.98 µM (inactive) | 4.28 µM (inactive) | 3.85 µM (inactive) | 1.52 µM (inactive) | 3.65 µM (inactive) | 2.55 µM (inactive) |  | 8.45 µM (inactive) |  | 4.2 µM (inactive) | 3.74 µM (inactive) | 21.7 µM (inactive)
Nc1nc(Cl)cc(NC2(CO)CCC2)n1 |  | > 100 µM (inactive) | > 100 µM (inactive) | > 100 µM (inactive) | > 100 µM (inactive) | > 100 µM (inactive) | > 100 µM (inactive) | > 100 µM (inactive) | > 100 µM (inactive) | > 100 µM (inactive) | > 100 µM (inactive) | > 100 µM (inactive) | > 100 µM (inactive) | > 100 µM (inactive) | > 100 µM (inactive) | > 100 µM (inactive) | > 100 µM (inactive) | > 100 µM (inactive) | > 100 µM (inactive) | > 100 µM (inactive)
N#Cc1c(C#N)c(-c2ccccc2)n(Cc2ccccc2)c1N | > 100 µM (inactive) | > 100 µM (inactive) | > 100 µM (inactive) | > 100 µM (inactive) | > 100 µM (inactive) | > 100 µM (inactive) | 80.5 µM (inactive) | > 100 µM (inactive) | 35 µM (inactive) | 28.4 µM (inactive) | > 100 µM (inactive) | > 100 µM (inactive) | > 100 µM (inactive) | 26.9 µM (inactive) | > 100 µM (inactive) | > 100 µM (inactive) |  | > 100 µM (inactive) | > 100 µM (inactive) | > 100 µM (inactive)
O=C(/C=C/c1ccc(Cl)cc1)Oc1ccc(C=C2CCC/C(=C\c3ccc(OC(=O)/C=C/c4ccc(Cl)cc4)cc3)C2=O)cc1 | > 100 µM (inactive) | > 100 µM (inactive) | > 100 µM (inactive) | > 100 µM (inactive) | > 100 µM (inactive) | > 100 µM (inactive) | > 100 µM (inactive) | > 100 µM (inactive) | > 100 µM (inactive) | > 100 µM (inactive) | > 100 µM (inactive) | > 100 µM (inactive) | > 100 µM (inactive) | > 100 µM (inactive) | > 100 µM (inactive) | > 100 µM (inactive) | > 100 µM (inactive) | > 100 µM (inactive) | > 100 µM (inactive) | 
CC(=O)OC[C@@]12Cc3ccc(C)c(O)c3[C@]1(C)[C@@H](OC(C)=O)[C@]1(O)[C@H]([C@@H](OC(=O)c3ccccc3)[C@@H](C)[C@H]1OC(C)=O)[C@H]2OC(C)=O | > 50 µM (inactive) | > 50 µM (inactive) | > 50 µM (inactive) | > 50 µM (inactive) | > 50 µM (inactive) | > 50 µM (inactive) | > 50 µM (inactive) | > 50 µM (inactive) | > 50 µM (inactive) | > 50 µM (inactive) | > 50 µM (inactive) | > 50 µM (inactive) | > 50 µM (inactive) | > 50 µM (inactive) | 22 µM (inactive) | > 50 µM (inactive) |  | > 50 µM (inactive) | > 50 µM (inactive) | 44.9 µM (inactive)
COc1cc(OCCN(C)C)c2[nH]c(C(=O)N3CC(CCl)c4ccc(N)cc43)cc2c1 (stereo not drawn) | 1.04 µM (active) | 0.0475 µM (active) | 0.0195 µM (active) | 0.0404 µM (active) | 0.0269 µM (active) | 0.0441 µM (active) | 0.0432 µM (active) | 0.0239 µM (active) | 0.0202 µM (active) | 0.0432 µM (active) | 0.0656 µM (active) | 0.108 µM (active) | 0.0142 µM (active) | 0.0912 µM (active) | 0.0265 µM (active) | 0.0376 µM (active) | 0.0628 µM (active) | < 0.01 µM (active) | 0.0312 µM (active) | 
O=C(NNC(=O)c1ccncc1)c1ccncc1 | > 100 µM (inactive) | > 100 µM (inactive) | > 100 µM (inactive) | > 100 µM (inactive) | > 100 µM (inactive) | > 100 µM (inactive) | > 100 µM (inactive) | > 100 µM (inactive) | > 100 µM (inactive) | > 100 µM (inactive) | > 100 µM (inactive) | > 100 µM (inactive) | > 100 µM (inactive) | > 100 µM (inactive) |  | > 100 µM (inactive) | > 100 µM (inactive) | > 100 µM (inactive) | > 100 µM (inactive) | > 100 µM (inactive)
N=c1oc2ccc(Cl)cc2cc1C(=O)NC1CCCCC1 | > 100 µM (inactive) | 49.2 µM (inactive) |  | 59.2 µM (inactive) | > 100 µM (inactive) | 96.4 µM (inactive) | > 100 µM (inactive) | 66.7 µM (inactive) | 87.9 µM (inactive) | > 100 µM (inactive) | > 100 µM (inactive) |  | 73.8 µM (inactive) | > 100 µM (inactive) | 32.1 µM (inactive) | 81.5 µM (inactive) | 98.6 µM (inactive) | 44.2 µM (inactive) | 66.2 µM (inactive) | 39.7 µM (inactive)
CCCSc1cc(Cl)c(C)cc1S(=O)(=O)n1ccnc1OCCCN(C)C | > 100 µM (inactive) | > 100 µM (inactive) | > 100 µM (inactive) | > 100 µM (inactive) | > 100 µM (inactive) | > 100 µM (inactive) | > 100 µM (inactive) | > 100 µM (inactive) | > 100 µM (inactive) | > 100 µM (inactive) | > 100 µM (inactive) | > 100 µM (inactive) | > 100 µM (inactive) | > 100 µM (inactive) | > 100 µM (inactive) | > 100 µM (inactive) | > 100 µM (inactive) | > 100 µM (inactive) | > 100 µM (inactive) | 
O=C1CCC[C@H]2O[C@@H](COC(=O)c3ccccc3)C[C@H]2O1 | > 100 µM (inactive) | > 100 µM (inactive) | > 100 µM (inactive) | > 100 µM (inactive) | > 100 µM (inactive) | > 100 µM (inactive) | > 100 µM (inactive) | > 100 µM (inactive) |  | > 100 µM (inactive) | > 100 µM (inactive) | > 100 µM (inactive) | > 100 µM (inactive) | > 100 µM (inactive) |  | > 100 µM (inactive) | > 100 µM (inactive) | > 100 µM (inactive) | > 100 µM (inactive) | > 100 µM (inactive)
